Assay results published in US11129836B2, “PAR-4 agonists for the treatment of cancer” (Cipla Limited, priority 2016, dated 2021).

Legend:
[1] = system: Mouse embryonic fibroblast cells; test: Assay to analyse non-cytotoxic concentration (CellTiter 96 AQueous One cell proliferation assay); format: cell-based; details: up to 48 hours, highest concentration of 125 μM
Protocol: Mouse embryonic fibroblast cells were plated in 96-well cell culture plates (2×10^4 cells/well) and were treated with drug/s at various concentrations. […] After the incubation anti-proliferative activity of test compounds was measured using ProMega Cell Titer aqueous one solution cell proliferation assay kit, viz. CellTiter 96® AQueous One Solution Reagent. Cells were incubated for 1-4 hours at 37° C., 5% CO2 incubator and absorbance was measured at 490 nm using a plate reader. IC50 values were determined by plotting compound concentration versus cell viability.

PAR-4 [2] = test: PAR-4 secretion assay, Western blot of conditioned media and lysate; format: cell-based, mouse
Protocol: Material: DMEM media, FBS, Mouse embryonic fibroblast cells, PAR-4 antibody, Antirabbit IgG-HRP, Collagen A1 antibody, B-actin antibody, Antimouse IgG HRP
Six well plate seeded (2 ml per well) with Mouse embryonic fibroblast cells in DMEM+10% FBS. The plate was incubated for 16-18 hrs, 37° C. 5% CO2.
Drugs to be tested are diluted with suitable solvent to obtain 25 mM concentration. Media from cells is discarded and replaced with DMEM media with 0.1% FBS. Compound added to the cells at final concentration of 25 μM.
Conditioned media (CM-supernatant) is collected from each well and centrifuged at 1000 rpm/5 mins to remove cell debris. After centrifugation the media was poured in concentration filters (Amicon ultracentrifuge tube with cutoff 10 Kda) and again centrifuged at 4500 rpm/15 mins at 4° C. The media was concentrated to 100 μl and then mixed with 50 μl of loading dye. The mixture was maintained in a 100° C. dry bath/water bath for 10 mins. SDS-PAGE and a western blot was performed of the samples using broad range molecular weight marker.

PAR-4 [3] = details: mouse embryonic fibroblast (MEF) cells, at micromolar levels; cited from earlier work

Row | SMILES | toxicity in Mouse Embryonic fibroblast cells [1] | PAR-4 secretion (FIG. 1, Western blot) (PAR-4 [2]; mouse embryonic fibroblast cells) | increase in the secretion of intracellular PAR-4 (PAR-4 [2]; mouse embryonic fibroblast cells (lysate), compared to DMSO control, Western blot, compound at 25 μM) | increase in the secretion of PAR-4 in the conditioned media (PAR-4 [2]; mouse embryonic fibroblast cells, compared to DMSO control, Western blot, compound at 25 μM) | stimulation of PAR-4 secretion (PAR-4 [3])
1 | CO/N=C(\C(=O)N[C@@H]1C(=O)N2C(C(=O)O)=C(COC(N)=O)CS[C@H]12)c1ccco1 [Cefuroxime, (6R, 7R)-3-{[(aminocarbonyl)oxy]methyl}-7-{[(2Z)-2-(2-furyl)-2-(methoxyimino)acetyl]amino}-8-oxo-5-thia-1-azabicyclo [4.2.0]oct-2-ene-2-carboxylic acid] | does not show toxicity | increased PAR-4 secretion | about 2 fold | 4-5 fold | –
2 | COc1ccc(C2=N[C@@H](c3ccc(Cl)cc3)[C@@H](c3ccc(Cl)cc3)N2C(=O)N2CCNC(=O)C2)c(OC(C)C)c1 [Nutlin-3a] | – | – | – | – | stimulated PAR-4 secretion at micromolar levels
